System: 873145-292-R-J1-PDC complex spheroid viability
Assay: Anticancer human tumor 873145-292-R-J1-PDC patient-derived renal clear cell carcinoma cell line growth inhibition [POLQ]
Settings: for IC50: curve of first compound; for viability, T/C: stronger effect = lower value
In short: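 Complex spheroid viability model combining PDC tumour cells with endothelial (HUVEC) and MSC stromal cells. Novobiocin, ART-558 or RP6685 were tested singly and in combination with standard and investigational anticancer drugs. Each was titrated in half-log steps from near clinical Cmax, or from 10 microM where Cmax was unknown.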

[1] = second compound 0.0316 µM, first compound 0.0316 µM
[2] = second compound 0.0316 µM, first compound 0.1 µM
[3] = second compound 0.0316 µM, first compound 0.316 µM
[4] = second compound 0.0316 µM, first compound 1 µM
[5] = second compound 0.0316 µM, first compound 3.16 µM
[6] = second compound 0.0316 µM, first compound 10 µM
[7] = second compound 0.1 µM, first compound 0.0316 µM
[8] = second compound 0.1 µM, first compound 0.1 µM
[9] = second compound 0.1 µM, first compound 0.316 µM
[10] = second compound 0.1 µM, first compound 1 µM
[11] = second compound 0.1 µM, first compound 3.16 µM
[12] = second compound 0.1 µM, first compound 10 µM
[13] = second compound 0.316 µM, first compound 0.0316 µM
[14] = second compound 0.316 µM, first compound 0.1 µM
[15] = second compound 0.316 µM, first compound 0.316 µM
[16] = second compound 0.316 µM, first compound 1 µM
[17] = second compound 0.316 µM, first compound 3.16 µM
[18] = second compound 0.316 µM, first compound 10 µM
[19] = second compound 1 µM, first compound 0.0316 µM
[20] = second compound 1 µM, first compound 0.1 µM
[21] = second compound 1 µM, first compound 0.316 µM
[22] = second compound 1 µM, first compound 1 µM
[23] = second compound 1 µM, first compound 3.16 µM
[24] = second compound 1 µM, first compound 10 µM
[25] = second compound 3.16 µM, first compound 0.0316 µM
[26] = second compound 3.16 µM, first compound 0.1 µM
[27] = second compound 3.16 µM, first compound 0.316 µM
[28] = second compound 3.16 µM, first compound 1 µM
[29] = second compound 3.16 µM, first compound 3.16 µM
[30] = second compound 3.16 µM, first compound 10 µM
[31] = second compound 10 µM, first compound 0.0316 µM
[32] = second compound 10 µM, first compound 0.1 µM
[33] = second compound 10 µM, first compound 0.316 µM
[34] = second compound 10 µM, first compound 1 µM
[35] = second compound 10 µM, first compound 3.16 µM
[36] = second compound 10 µM, first compound 10 µM
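Note: spheroids exposed to compounds for 7 days before viability readout.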
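Throughout, for viability, T/C: luminescence signal used as surrogate for viable cell content; 100% = DMSO vehicle control viability.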

Which results are given for `CC(=O)O[C@H]1C(=O)[C@@]2(C)[C@H]([C@H](OC(=O)c3ccccc3)[C@]3(O)C[C@H](OC(=O)[C@H](O)[C@@H](NC(=O)c4ccccc4)c4ccccc4)C(C)=C1C3(C)C)[C@]1(OC(C)=O)CO[C@@H]1C[C@@H]2O` + COC1C(OC(N)=O)C(O)C(Oc2ccc3c(O)c(NC(=O)c4ccc(O)c(CC=C(C)C)c4)c(=O)oc3c2C)OC1(C)C?
IC50 (second compound 0.0316 µM): > 3 µM; IC50 (second compound 0.1 µM): > 3 µM; IC50 (second compound 0.316 µM): > 3 µM; IC50 (second compound 1 µM): > 3 µM; IC50 (second compound 3.16 µM): > 3 µM; IC50 (second compound 10 µM): > 3 µM; viability, T/C (second compound 0.0316 µM, first compound 0.00949 µM): 90.9%; viability, T/C (second compound 0.0316 µM, first compound 0.03 µM): 67.2%; viability, T/C (second compound 0.0316 µM, first compound 0.0949 µM): 67.1%; viability, T/C (second compound 0.0316 µM, first compound 0.3 µM): 61.8%; viability, T/C (second compound 0.0316 µM, first compound 0.949 µM): 60.2%; viability, T/C (second compound 0.0316 µM, first compound 3 µM): 66.4%; viability, T/C (second compound 0.1 µM, first compound 0.00949 µM): 77.6%; viability, T/C (second compound 0.1 µM, first compound 0.03 µM): 75.2%; viability, T/C (second compound 0.1 µM, first compound 0.0949 µM): 73.9%; viability, T/C (second compound 0.1 µM, first compound 0.3 µM): 58.5%; viability, T/C (second compound 0.1 µM, first compound 0.949 µM): 58.5%; viability, T/C (second compound 0.1 µM, first compound 3 µM): 57.3%; viability, T/C (second compound 0.316 µM, first compound 0.00949 µM): 79.1%; viability, T/C (second compound 0.316 µM, first compound 0.03 µM): 73.5%; viability, T/C (second compound 0.316 µM, first compound 0.0949 µM): 66.6%; viability, T/C (second compound 0.316 µM, first compound 0.3 µM): 60.9%; viability, T/C (second compound 0.316 µM, first compound 0.949 µM): 55.7%; viability, T/C (second compound 0.316 µM, first compound 3 µM): 60.1%; viability, T/C (second compound 1 µM, first compound 0.00949 µM): 84%; viability, T/C (second compound 1 µM, first compound 0.03 µM): 77.7%; viability, T/C (second compound 1 µM, first compound 0.0949 µM): 74.8%; viability, T/C (second compound 1 µM, first compound 0.3 µM): 59%; viability, T/C (second compound 1 µM, first compound 0.949 µM): 57.6%; viability, T/C (second compound 1 µM, first compound 3 µM): 57.8%; viability, T/C (second compound 3.16 µM, first compound 0.00949 µM): 77.4%; viability, T/C (second compound 3.16 µM, first compound 0.03 µM): 72.5%; viability, T/C (second compound 3.16 µM, first compound 0.0949 µM): 70.1%; viability, T/C (second compound 3.16 µM, first compound 0.3 µM): 57.9%; viability, T/C (second compound 3.16 µM, first compound 0.949 µM): 58.1%; viability, T/C (second compound 3.16 µM, first compound 3 µM): 58.3%; viability, T/C (second compound 10 µM, first compound 0.00949 µM): 78.4%; viability, T/C (second compound 10 µM, first compound 0.03 µM): 69.1%; viability, T/C (second compound 10 µM, first compound 0.0949 µM): 62.3%; viability, T/C (second compound 10 µM, first compound 0.3 µM): 55.7%; viability, T/C (second compound 10 µM, first compound 0.949 µM): 64.1%; viability, T/C (second compound 10 µM, first compound 3 µM): 58.6%

With `COc1cc(C2c3cc4c(cc3C(OC3OC5COC(C)OC5C(O)C3O)C3COC(=O)C23)OCO4)cc(OC)c1O` (stereo unspecified) + Cc1cccc(N(C)C(=O)C2C(O)CCN2c2nc(C)cc(C(F)(F)F)c2C#N)c1 as the molecule, how does the IC50 (second compound 0.0316 µM) read?
The IC50 was 9.59 µM.

What about the IC50 (second compound 0.1 µM) of the same molecule?
Its IC50 is greater than 10 µM.

What about the IC50 (second compound 0.316 µM) of the same molecule?
The IC50 was 8.71 µM.

What about the IC50 (second compound 1 µM) of the same molecule?
Its IC50 is 8.98 µM.

What about the IC50 (second compound 3.16 µM) of the same molecule?
Its IC50 is 9.5 µM.

What about the IC50 (second compound 10 µM) of the same molecule?
Its IC50 is greater than 10 µM.

And the viability, T/C [1]?
Its viability, T/C is 97.9%.

And the viability, T/C [2]?
Its viability, T/C is 98.3%.

What about the viability, T/C [3] of the same molecule?
The viability, T/C was 86.8%.

And the viability, T/C [4]?
Its viability, T/C is 81.4%.

And the viability, T/C [5]?
Its viability, T/C is 68.2%.

What about the viability, T/C [6] of the same molecule?
The viability, T/C was 48.9%.

What about the viability, T/C [7] of the same molecule?
The viability, T/C was 91.2%.

And the viability, T/C [8]?
Its viability, T/C is 94.5%.

What about the viability, T/C [9] of the same molecule?
The viability, T/C was 87.4%.

What about the viability, T/C [10] of the same molecule?
The viability, T/C was 90.1%.

What about the viability, T/C [11] of the same molecule?
Its viability, T/C is 68.9%.

And the viability, T/C [12]?
The viability, T/C was 53.5%.

What about the viability, T/C [13] of the same molecule?
Its viability, T/C is 99.6%.

And the viability, T/C [14]?
Its viability, T/C is 97.1%.

And the viability, T/C [15]?
The viability, T/C was 78.5%.

What about the viability, T/C [16] of the same molecule?
The viability, T/C was 86.8%.

And the viability, T/C [17]?
The viability, T/C was 68.3%.

What about the viability, T/C [18] of the same molecule?
The viability, T/C was 46.2%.

What about the viability, T/C [19] of the same molecule?
The viability, T/C was 94.6%.

And the viability, T/C [20]?
Its viability, T/C is 96.7%.

What about the viability, T/C [21] of the same molecule?
The viability, T/C was 95%.

And the viability, T/C [22]?
Its viability, T/C is 87%.

What about the viability, T/C [23] of the same molecule?
Its viability, T/C is 68.8%.

And the viability, T/C [24]?
The viability, T/C was 48%.

And the viability, T/C [25]?
The viability, T/C was 98.9%.

What about the viability, T/C [26] of the same molecule?
The viability, T/C was 82.5%.

And the viability, T/C [27]?
The viability, T/C was 91.1%.

What about the viability, T/C [28] of the same molecule?
The viability, T/C was 85.8%.

And the viability, T/C [29]?
Its viability, T/C is 74%.

And the viability, T/C [30]?
The viability, T/C was 48.4%.

And the viability, T/C [31]?
The viability, T/C was 96.7%.

What about the viability, T/C [32] of the same molecule?
The viability, T/C was 85.3%.

And the viability, T/C [33]?
The viability, T/C was 81.6%.

What about the viability, T/C [34] of the same molecule?
Its viability, T/C is 72.3%.

And the viability, T/C [35]?
Its viability, T/C is 60%.

And the viability, T/C [36]?
Its viability, T/C is 57.1%.

With `O=C(c1cc(Cc2n[nH]c(=O)c3ccccc23)ccc1F)N1CCN(C(=O)C2CC2)CC1` + Cc1cccc(N(C)C(=O)C2C(O)CCN2c2nc(C)cc(C(F)(F)F)c2C#N)c1 as the molecule, how does the IC50 (second compound 0.0316 µM) read?
Its IC50 is greater than 10 µM.

What about the IC50 (second compound 0.1 µM) of the same molecule?
Its IC50 is greater than 10 µM.

What about the IC50 (second compound 0.316 µM) of the same molecule?
The IC50 was greater than 10 µM.

And the IC50 (second compound 1 µM)?
The IC50 was greater than 10 µM.

What about the IC50 (second compound 3.16 µM) of the same molecule?
Its IC50 is greater than 10 µM.

What about the IC50 (second compound 10 µM) of the same molecule?
The IC50 was greater than 10 µM.

And the viability, T/C [1]?
The viability, T/C was 104%.

And the viability, T/C [2]?
Its viability, T/C is 110%.

And the viability, T/C [3]?
Its viability, T/C is 87.7%.

And the viability, T/C [4]?
The viability, T/C was 101%.

And the viability, T/C [5]?
Its viability, T/C is 102%.

And the viability, T/C [6]?
Its viability, T/C is 94.8%.

What about the viability, T/C [7] of the same molecule?
Its viability, T/C is 103%.

What about the viability, T/C [8] of the same molecule?
The viability, T/C was 104%.

And the viability, T/C [9]?
Its viability, T/C is 90.4%.

And the viability, T/C [10]?
Its viability, T/C is 102%.

What about the viability, T/C [11] of the same molecule?
Its viability, T/C is 99.9%.

What about the viability, T/C [12] of the same molecule?
Its viability, T/C is 90.8%.

And the viability, T/C [13]?
Its viability, T/C is 94.4%.

What about the viability, T/C [14] of the same molecule?
The viability, T/C was 92.1%.

What about the viability, T/C [15] of the same molecule?
Its viability, T/C is 103%.

What about the viability, T/C [16] of the same molecule?
Its viability, T/C is 88.4%.

What about the viability, T/C [17] of the same molecule?
The viability, T/C was 106%.

And the viability, T/C [18]?
Its viability, T/C is 92.2%.

And the viability, T/C [19]?
The viability, T/C was 103%.

What about the viability, T/C [20] of the same molecule?
Its viability, T/C is 89%.

What about the viability, T/C [21] of the same molecule?
Its viability, T/C is 87.8%.

What about the viability, T/C [22] of the same molecule?
Its viability, T/C is 106%.

What about the viability, T/C [23] of the same molecule?
Its viability, T/C is 94.3%.

And the viability, T/C [24]?
Its viability, T/C is 87.7%.

And the viability, T/C [25]?
Its viability, T/C is 92.9%.

What about the viability, T/C [26] of the same molecule?
Its viability, T/C is 93.2%.

And the viability, T/C [27]?
The viability, T/C was 111%.

What about the viability, T/C [28] of the same molecule?
The viability, T/C was 103%.

And the viability, T/C [29]?
Its viability, T/C is 96.8%.

And the viability, T/C [30]?
Its viability, T/C is 98.9%.

What about the viability, T/C [31] of the same molecule?
Its viability, T/C is 100%.

And the viability, T/C [32]?
Its viability, T/C is 93.3%.

And the viability, T/C [33]?
The viability, T/C was 91%.

And the viability, T/C [34]?
Its viability, T/C is 102%.

What about the viability, T/C [35] of the same molecule?
Its viability, T/C is 102%.

What about the viability, T/C [36] of the same molecule?
Its viability, T/C is 107%.
